Target: CpOGA (Clostridium perfringens, UniProt Q0TR53)
Settings: read-out: Michaelis constant (KM) of glycopeptide substrate for CpOGA; pH 7.4

“PVSVPYS(O-GlcNAc)SAQSTS [TAB1 (Ser395) 13]” and VAHS(O-GlcNAc)GAK [hOGA (Ser405) 7] are within error of each other in Km: 36 ± 1 µM for the first, 40 ± 10 µM for the second.

Work on “p53 (Ser149) 11: 11-residue O-GlcNAc glycopeptide derived from p53 Ser149 site” yielded a Km of 2.9 ± 0.4 µM.

Reference: PMC3476531, “Synergy of Peptide and Sugar in O-GlcNAcase Substrate Recognition” (Chemistry & Biology, 2012)
